By EC50 is commonly meant the concentration needed to bring the measured effect to its halfway point.

The test has as its system ATF4 luciferase reporter in HEK293T cells. Kind of test: ATF4-Luc assay (ATF4 luciferase reporter, tunicamycin-treated HEK293T cells). The format is cell-based, human. Particulars: Homo sapiens, HEK-293T; HEK293T cells carrying the ATF4 luciferase reporter, 1 μg/mL tunicamycin, 7 hours. (In general: Reporter assays use an easily measured gene product as a stand-in for the process of interest.)
As for `CS(=O)(=O)OC1CC2(NC(=O)COc3ccc(Cl)c(F)c3)CCC1(NC(=O)COc1ccc(Cl)c(F)c1)CC2` (centres unmarked) [Compound 344, 1,4-bis[2-(4-chloro-3-fluorophenoxy)acetamido]bicyclo[2.2.2]octan-2-yl methanesulfonate], the EC50 is below 0.01 µM.
With `O=C(COc1ccc(Cl)c(F)c1)NC12CCC(NC(=O)COc3ccc(F)cc3)(CC1)C(O)C2` (centres unmarked) [Compound 345, 2-(4-chloro-3-fluorophenoxy)-N-{4-[2-(4-fluorophenoxy)acetamido]-3-hydroxybicyclo[2.2.2]octan-1-yl}acetamide], the EC50 is below 0.01 µM.
The value for `O=C(/C=C/c1ccc(C(F)(F)F)cc1)NC12CC(NC(=O)COc3ccc(Cl)c(F)c3)(C1)C2` [Compound 346, (2E)-N-{3-[2-(4-chloro-3-fluorophenoxy)acetamido]bicyclo[1.1.1]pentan-1-yl}-3-[4-(trifluoromethyl)phenyl]prop-2-enamide] was 0.05 to 0.25 µM; that for `COc1ccc(/C=C/C(=O)NC23CC(NC(=O)COc4ccc(Cl)c(F)c4)(C2)C3)cc1` [Compound 347, (2E)-N-{3-[2-(4-chloro-3-fluorophenoxy)acetamido]bicyclo[1.1.1]pentan-1-yl}-3-(4-methoxyphenyl)prop-2-enamide] was 0.25 to 0.5 µM; that for `O=C(/C=C/c1ccc(Cl)c(Cl)c1)NC12CC(NC(=O)COc3ccc(Cl)c(F)c3)(C1)C2` [Compound 348, (2E)-N-{3-[2-(4-chloro-3-fluorophenoxy)acetamido]bicyclo[1.1.1]pentan-1-yl}-3-(3,4-dichlorophenyl)prop-2-enamide] was 0.01 to 0.05 µM.
The value for `O=C(/C=C/c1ccccn1)NC12CC(NC(=O)COc3ccc(Cl)c(F)c3)(C1)C2` [Compound 349, (2E)-N-{3-[2-(4-chloro-3-fluorophenoxy)acetamido]bicyclo[1.1.1]pentan-1-yl}-3-(pyridin-2-yl)prop-2-enamide] was 0.5 to 2 µM.
Consider `O=C(/C=C/c1cccc(Cl)c1)NC12CC(NC(=O)COc3ccc(Cl)c(F)c3)(C1)C2` [Compound 350, (2E)-N-{3-[2-(4-chloro-3-fluorophenoxy)acetamido]bicyclo[1.1.1]pentan-1-yl}-3-(3-chlorophenyl)prop-2-enamide], for which the EC50 was 0.05 to 0.25 µM.
Turning to `O=C(/C=C/c1ccc(C(F)(F)F)nc1)NC12CC(NC(=O)COc3ccc(Cl)c(F)c3)(C1)C2` [Compound 351, (2E)-N-{3-[2-(4-chloro-3-fluorophenoxy)acetamido]bicyclo[1.1.1]pentan-1-yl}-3-[6-(trifluoromethyl)pyridin-3-yl]prop-2-enamide], the EC50 was 0.25 to 0.5 µM.
The value for `O=C(/C=C/c1cccnc1)NC12CC(NC(=O)COc3ccc(Cl)c(F)c3)(C1)C2` [Compound 352, (2E)-N-{3-[2-(4-chloro-3-fluorophenoxy)acetamido]bicyclo[1.1.1]pentan-1-yl}-3-(pyridin-3-yl)prop-2-enamide] was 0.5 to 2 µM.
The value for `O=C(COc1cncc(C(F)(F)F)c1)NC12CCC(NC(=O)COc3ccc(Cl)c(F)c3)(C1)C2` [Compound 355, 2-(4-chloro-3-fluorophenoxy)-N-[4-(2-{[5-(trifluoromethyl)pyridin-3-yl]oxy}acetamido)bicyclo[2.1.1]hexan-1-yl]acetamide] was 0.05 to 0.25 µM; that for `O=C(Cc1ccc(C(F)(F)F)cn1)NC12CCC(NC(=O)COc3ccc(Cl)c(F)c3)(CC1)C(O)C2` (centres unmarked) [Compound 356, 2-(4-chloro-3-fluorophenoxy)-N-(2-hydroxy-4-{2-[5-(trifluoromethyl)pyridin-2-yl]acetamido}bicyclo[2.2.2]octan-1-yl)acetamide] was 0.01 to 0.05 µM; that for `NC1CC2(NC(=O)COc3ccc(Cl)c(F)c3)CCC1(NC(=O)COc1ccc(Cl)c(F)c1)CC2` (centres unmarked) [Compound 357, N,N′-(2-aminobicyclo[2.2.2]octane-1,4-diyl)bis[2-(4-chloro-3-fluorophenoxy)acetamide]] was below 0.01 µM.
As for `CC(=O)NC1CC2(NC(=O)COc3ccc(Cl)c(F)c3)CCC1(NC(=O)COc1ccc(Cl)c(F)c1)CC2` (centres unmarked) [Compound 358, N,N′-(2-acetamidobicyclo[2.2.2]octane-1,4-diyl)bis[2-(4-chloro-3-fluorophenoxy)acetamide]], the EC50 is below 0.01 µM.
The value for `O=C(COc1ccc(F)c(F)c1)NC12CCC(NC(=O)COc3ccc(C(F)(F)F)nc3)(CC1)C(O)C2` (centres unmarked) [Compound 359, 2-(3,4-difluorophenoxy)-N-[3-hydroxy-4-(2-{[6-(trifluoromethyl)pyridin-3-yl]oxy}acetamido)bicyclo[2.2.2]octan-1-yl]acetamide] was 0.01 to 0.05 µM; that for `O=C(COc1ccc(Cl)c(F)c1)NC12CC(NC(=O)Cc3noc4ccccc34)(C1)C2` [Compound 360, 2-(1,2-benzoxazol-3-yl)-N-{3-[2-(4-chloro-3-fluorophenoxy)acetamido]bicyclo[1.1.1]pentan-1-yl}acetamide] was above 2 µM.
The value for `O=C(COc1ccc(Cl)c(F)c1)NC12CC(NC(=O)Cc3cccc(OC(F)(F)F)c3)(C1)C2` [Compound 361, 2-(4-chloro-3-fluorophenoxy)-N-(3-{2-[3-(trifluoromethoxy)phenyl]acetamido}bicyclo[1.1.1]pentan-1-yl)acetamide] was above 2 µM; that for `O=C(COc1ccc(F)c(F)c1)NC12CCC(NC(=O)COc3ccc4c(c3)OC(F)(F)O4)(CC1)C(O)C2` (centres unmarked) [Compound 362, 2-[(2,2-difluoro-2H-1,3-benzodioxol-5-yl)oxy]-N-{4-[2-(3,4-difluorophenoxy)acetamido]-2-hydroxybicyclo[2.2.2]octan-1-yl}acetamide] was below 0.01 µM; that for `O=C(COc1ccc(F)c(F)c1)NC12CCC(NC(=O)COc3ccc(F)c(F)c3)(CC1)C(O)C2` (centres unmarked) [Compound 363, N,N′-(2-hydroxybicyclo[2.2.2]octane-1,4-diyl)bis[2-(3,4-difluorophenoxy)acetamide]] was below 0.01 µM.
The value for `O=C(COc1ccc(F)c(F)c1)NC12CCC(NC(=O)COc3ccc(F)cc3)(CC1)C(O)C2` (centres unmarked) [Compound 364, 2-(3,4-difluorophenoxy)-N-{4-[2-(4-fluorophenoxy)acetamido]-3-hydroxybicyclo[2.2.2]octan-1-yl}acetamide] was below 0.01 µM.
Turning to `O=C(COc1ccc(Cl)c(F)c1)NC12CCC(NC(=O)COc3ccc(Cl)c(F)c3)(CC1)C(F)C2` (centres unmarked) [Compound 365, N,N′-(2-fluorobicyclo[2.2.2]octane-1,4-diyl)bis[2-(4-chloro-3-fluorophenoxy)acetamide]], the EC50 was below 0.01 µM.
Under `O=C(COc1ccc(Cl)c(F)c1)NC12CCC(NC(=O)COc3ccc(C(F)(F)F)nc3)(CC1)C(F)C2` (centres unmarked) [Compound 366, 2-(4-chloro-3-fluorophenoxy)-N-[3-fluoro-4-(2-{[6-(trifluoromethyl)pyridin-3-yl]oxy}acetamido)bicyclo[2.2.2]octan-1-yl]acetamide] stands 0.01 to 0.05 µM; under `O=C(/C=C/c1ccc(Cl)c(Cl)c1)NC12CC(NC(=O)/C=C/c3ccc(Cl)c(Cl)c3)(C1)C2` [Compound 367, (2E,2′E)-N,N′-(bicyclo[1.1.1]pentane-1,3-diyl)bis[3-(3,4-dichlorophenyl)prop-2-enamide]], above 2 µM.
The value for `O=C(COc1ccc(Cl)cc1)NC12CC(NC(=O)COc3ccc(Cl)c(F)c3)(C1)C2` [Compound 368, 2-(4-chloro-3-fluorophenoxy)-N-{3-[2-(4-chlorophenoxy)acetamido]bicyclo[1.1.1]pentan-1-yl}acetamide] was below 0.01 µM.

The values above are taken from patent US20240166652A1, “MODULATORS OF THE INTEGRATED STRESS PATHWAY” (Calico Life Sciences LLC, priority 2017, published 2024).
